{
  "source": "ChEMBL document CHEMBL1221198",
  "about": "(Nat Chem Biol, 2007)",
  "key": {"HEK293 [1]": {"tested_on": "HEK293", "assay": "Inhibition of RSK-mediated rpS6 phosphorylation at Ser236 residues in human PMA-stimulated HEK 293 cells at 30 uM after 1 hr by Western blotting", "type": "cell-based"}, "HEK293 [2]": {"tested_on": "HEK293", "assay": "Inhibition of RSK-mediated rpS6 phosphorylation at Ser235 residues in human PMA-stimulated HEK 293 cells at 30 uM after 1 hr by Western blotting", "type": "cell-based"}, "[3]": {"molecular_target": "T1, Ribosomal protein S6 kinase alpha-3 (Homo sapiens, UniProt P51812)", "T1 sequence (P51812 whole entry)": "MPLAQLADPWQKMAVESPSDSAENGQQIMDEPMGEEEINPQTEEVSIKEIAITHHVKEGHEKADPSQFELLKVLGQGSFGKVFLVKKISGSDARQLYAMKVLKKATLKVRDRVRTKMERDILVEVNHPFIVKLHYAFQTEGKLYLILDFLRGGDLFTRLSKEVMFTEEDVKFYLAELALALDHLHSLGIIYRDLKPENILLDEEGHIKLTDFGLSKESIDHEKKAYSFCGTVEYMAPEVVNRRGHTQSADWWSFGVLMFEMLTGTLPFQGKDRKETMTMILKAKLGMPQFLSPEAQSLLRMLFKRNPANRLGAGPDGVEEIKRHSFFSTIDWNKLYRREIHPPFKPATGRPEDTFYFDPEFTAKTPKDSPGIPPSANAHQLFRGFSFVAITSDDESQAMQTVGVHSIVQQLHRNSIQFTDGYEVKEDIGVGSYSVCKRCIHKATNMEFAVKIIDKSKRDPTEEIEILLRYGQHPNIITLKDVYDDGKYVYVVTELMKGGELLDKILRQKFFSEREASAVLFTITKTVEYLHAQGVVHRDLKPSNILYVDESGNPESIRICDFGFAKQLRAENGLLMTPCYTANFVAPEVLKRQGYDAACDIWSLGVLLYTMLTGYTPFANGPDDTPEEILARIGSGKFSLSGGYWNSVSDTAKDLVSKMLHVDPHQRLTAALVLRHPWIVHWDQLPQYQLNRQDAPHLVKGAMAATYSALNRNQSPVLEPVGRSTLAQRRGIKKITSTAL", "assay": "Inhibition of PMA-stimulated RSK2 phosphorylation in HEK293 cells after 1 hr by Western blotting analysis", "type": "cell-based"}, "[4]": {"molecular_target": "T1, Ribosomal protein S6 kinase alpha-3", "assay": "Inhibition of His6-tagged RSK2 C-terminal domian expressed in Escherichia coli after 30 mins"}},
  "data": [
    {"smiles": "CO[C@H]1C[C@@H]2CC[C@@H](C)[C@@](O)(O2)C(=O)C(=O)N2CCCC[C@H]2C(=O)O[C@H]([C@H](C)C[C@@H]2CC[C@@H](O)[C@H](OC)C2)CC(=O)[C@H](C)/C=C(\\C)[C@@H](O)[C@@H](OC)C(=O)[C@H](C)C[C@H](C)/C=C/C=C/C=C/1C", "values": [
      {"measurement": "inhibition", "setting": "HEK293 [1]", "result": 76, "unit": "%"},
      {"measurement": "inhibition", "setting": "HEK293 [2]", "result": 76, "unit": "%"}
    ]},
    {"smiles": "CC1=CC(C)=[N+]2C1=Cc1ccc(CCC(=O)NCCCCCC(=O)NCCCCNC(=O)OCCCn3c(C(=O)CF)c(-c4ccc(C)cc4)c4c(N)ncnc43)n1[B-]2(F)F", "values": [
      {"measurement": "EC50", "setting": "[3]", "result": 10, "unit": "µM"},
      {"measurement": "IC50", "setting": "[4]", "result": 1.7, "unit": "µM"}
    ]}
  ]
}
